From patent US20190352297A1, “SELECTIVE AURORA A KINASE INHIBITORS” (UNIVERSITAT BERN, priority 2017, published 2019)

Columns and labels:
[1] = target: T1, Aurora A kinase domain (Homo sapiens, UniProt O14965); experiment: HTRF kinase assay, Aurora A; type: biochemical; conditions: free Aurora A, 20 μM ATP, HTRF; read-out: IC50 Aurora A (biochemical)
T1 construct: human Aurora A kinase domain (residues 122-403 in the pET24-d vector); His-tag (cleaved yes); made in house; host or cells: E. coli BL21 (DE3) Rosetta
T1 sequence (O14965 122-403): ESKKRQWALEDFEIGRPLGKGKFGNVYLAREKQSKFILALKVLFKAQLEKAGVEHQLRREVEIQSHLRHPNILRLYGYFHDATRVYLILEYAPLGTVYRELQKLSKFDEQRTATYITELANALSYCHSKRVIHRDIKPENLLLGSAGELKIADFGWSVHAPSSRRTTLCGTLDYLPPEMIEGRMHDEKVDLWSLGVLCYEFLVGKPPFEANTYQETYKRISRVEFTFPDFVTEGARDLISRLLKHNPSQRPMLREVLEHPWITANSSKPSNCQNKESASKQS
Experimental: The clone of human Aurora A kinase domain (residues 122-403 in the pET24-d vector) was kindly provided by the Montoya laboratory (University of Copenhagen). The construct was transformed into E. coli BL21 (DE3) Rosetta cells and protein expression was induced with 0.5 mM IPTG at 20° C. for 12 hours. The cells were harvested at 6,000×g for 25 min at 4° C. and resuspended in lysis buffer (50 mM Tris-HCl, 500 mM NaCl, 1 mM PMSF, pH=8.0). Disruption of the cells was performed by sonication cooled on ice, after which the debris were removed by centrifugation at 110,000×g for 30 min at 4° C. Aurora A was purified by affinity chromatography using NiNTA resin from Qiagen following the manufacturer's instructions. After loading, the resin was washed with lysis buffer, followed by a second wash with 6% elution buffer (50 mM Tris-HCl, 500 mM NaCl, 500 mM imidazole, pH=8.0). Protein was eluted with 100% elution buffer. The eluate was exchanged into final buffer (20 mM Tris-HCl, 200 mM NaCl, 0.5 mM EDTA, 2 mM DTT, pH=8.0) using a HiPrep 26/10 desalting column (GE Healthcare). The His-tag was cleaved with TEV protease at 4° C. overnight. […] Protein concentration was determined by UV absorbance. […]
Aurora A and AuroraB kinases were assayed using the homogeneous time-resolved fluorescence (HTRF) KinEASE STK2 kit from Cisbio (France). […] After incubation at room temperature for one hour, fluorescence was measured at 620 nm (europium cryptate) and 665 nm (XL-665) after excitation at 317 nm (lag time 60 μs, integration time 500 μs) using a Tecan Infinite M1000 PRO microplate reader (Greiner 384-well plates, white, non-binding, small volume). The ratio of fluorescence (665 nm/620 nm) was calculated for each well and the results were expressed as follows: specific signal=ratio (sample)−ratio (negative control), where ratio=665 nm/620 nm×10^4. Compounds were measured in threefold serial dilutions at 10 different concentrations, covering the concentration range from no to full inhibition. Each concentration was measured in duplicates, and two independent determinations were made for each IC50 value. […]

[2] = target: T2, GFP-Aurora A-Trp277Ala (Homo sapiens, UniProt O14965, W277A); experiment: Phenotypic rescue, cells expressing mutant Aurora A; type: cell-based
T2 construct: All Aurora A clones were constructed using full-length Aurora A as a template; expressed in transfected cells; host or cells: HeLa Kyoto
T2 sequence (O14965 1-403 W277A): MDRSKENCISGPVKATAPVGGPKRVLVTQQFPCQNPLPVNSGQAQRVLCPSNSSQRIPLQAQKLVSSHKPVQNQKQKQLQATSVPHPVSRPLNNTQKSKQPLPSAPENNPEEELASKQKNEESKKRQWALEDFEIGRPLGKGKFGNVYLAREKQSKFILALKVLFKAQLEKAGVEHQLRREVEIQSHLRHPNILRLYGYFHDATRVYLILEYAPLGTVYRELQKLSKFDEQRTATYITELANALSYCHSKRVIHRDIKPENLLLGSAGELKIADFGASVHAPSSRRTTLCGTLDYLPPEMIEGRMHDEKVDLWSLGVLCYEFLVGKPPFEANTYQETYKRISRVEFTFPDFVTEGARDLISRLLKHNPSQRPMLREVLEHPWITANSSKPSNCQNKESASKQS
Experimental: HeLa Kyoto cells were cultured in high-glucose DMEM with GlutaMAX (Life Technologies) media supplemented with 10% fetal calf serum (FCS) in a humidified 5% CO2 incubator at 37° C. For plasmid transfections, cells were seeded at 80-90% confluence. 4 μg of plasmid DNA in 100 μl OptiMEM and 4 μl of Lipofectamine 2000 (Life Technologies) in 100 μl OptiMEM were incubated in parallel for 5 minutes, mixed for 20 minutes and added to each well. All Aurora A clones were constructed using full-length Aurora A as a template with appropriate PCR primer pairs. […] GFP-Aurora AR137A and GFP-Aurora AW277A were engineered using a site directed mutagenesis kit (Agilent Technologies, no. 210515) with appropriate primers. For determining the mitotic index and the chromosome misalignment phenotype, cells were incubated with various concentrations of compounds for 20 h before analysis. Cells were likewise treated with 0.25 μM MLN8237 (Selleckchem, no. S1133) or 5 μM ZM447439 (Selleckchem, no. S1103). For flow cytometry analysis, 50 nM MLN8037 and 2.5 μM ZM447439 were used. […] To assess the impact of compound 9 on cell cycle progression, DNA content was analyzed after propidium iodide staining using FACS (BD Accuri C6 flow cytometer).

Compound: CCc1ccc(N=C2SC(=Cc3ccnc(Nc4ccc(C(=O)O)cn4)c3)C(=O)N2C)cc1 [Compound 9]
- IC50 [1]: 2 ± 0.5 nM
- sensitivity of GFP-Aurora A-Trp277Ala to inhibitor [2]: insensitive
